Data as given in US12291514B1, “Ethyl 2-[9-(2-hydroxypyridin-3-yl)-3,6-diphenyl-1,8-dioxo-3,4,9,10-tetrahydroacridine-10-yl]-acetate as an antimicrobial compound” (KING FAISAL UNIVERSITY, priority 2023, dated 2025).

Assays:
Assay type in all cases: cell-based
Details in all cases: after 10, 20, 40 and 60 minutes at all dilutions 1:100, 1:200, 1:400, 1:800
Pseudomonas aeruginosa = experiment: Antimicrobial screening by agar dilution, Ps. aeruginosa
Protocol: (§1) The antibacterial properties of the synthesized compound, ethyl 2-[9-(2-hydroxypyridin-3-yl)-3,6-diphenyl-1,8-dioxo-3,4,9,10-tetrahydroacridine-10-yl]-acetate, were studied by the method of agar dilution. Test solutions of each compound was prepared in concentration of 1% using dimethylformamide as a solvent then they are diluted in physiological solution to obtain the final experimental dilutions 1:100, 1:200, 1:400, 1:800. The effect of these substances are compared with furacillin in a controllable study. The testing microbes used were gram positive bacteria Staphylococcus aureus, gram negative bacteria Pseudomonas aeruginosa and Escherichia coli and Candida albicans fungus. The experiments used for this survey were meat-pentonlu agar (EPA) for cultivation of bacteria and Saburo environment for the fungus. Each experiment used 1 mL of test solution on each plate […]. Two drops of emulsified with microbes feel were added. All experimental samples were taken from the agar after 10, 20, 40, 60 minutes in the environment on the basis of Patrk planted. The bacteria were cultivated at a temperature of 37° C. for 1 day and the mushroom was kept in a thermostat for 2 hours at a temperature of 28° C. Then results were checked.

Candida albicans = experiment: Antimicrobial screening by agar dilution, Candida albicans
Protocol: as §1

Staphylococcus aureus = experiment: Antimicrobial screening by agar dilution, St. Aereus
Protocol: as §1

Escherichia coli = experiment: Antimicrobial screening by agar dilution, E. Coli
Protocol: as §1

Measured: inhibition activity (in words)

CCOC(=O)CN1C2=C(C(=O)CC(c3ccccc3)C2)C(c2cccnc2O)C2=C1CC(c1ccccc1)CC2=O (stereo not shown) [ethyl 2-[9-(2-hydroxypyridin-3-yl)-3,6-diphenyl-1,8-dioxo-3,4,9,10-tetrahydroacridine-10-yl]-acetate]
highest inhibition activity: all assays above
